In patent US10975037B2 (priority 2018, dated 2021):
Like-named read-outs stand apart in the source and are kept apart here.

Experiments:
[1] = target: human RORγt ligand binding domain (RORγt LBD) (Homo sapiens (Human), UniProt P51449); test: RORγt ThermoFluor® assay (thermal shift binding)
Method: This approach is applicable to a wide variety of systems, and rigorous in theoretical interpretation through quantitation of equilibrium binding constants (KD).
The shift in the melting point described as a ΔTm is proportional to the concentration and affinity of the ligand.
RORγt ThermoFluor® Assay Construct
Reference wells contained RORγt without compounds, and the assay conditions were as follows: • 0.065 mg/mL RORγt • 60 μM 1,8-ANS • 100 mM Hepes, pH 7.0 • 10 mM NaCl • 2.5 mM GSH • 0.002% Tween-20
Project compounds were arranged in a pre-dosed mother plate (Greiner Bio-one) wherein compounds are serially diluted in 100% DMSO by 1:2 from a high concentration of 10 mM over 12 columns within a series (column 12 is a reference well containing DMSO, no compound). The compounds were robotically dispensed directly into assay plates (1×=46 nL) using a Hummingbird capillary liquid handling instrument (Digilab). Following compound dispense, protein and dye in buffer was added to achieve the final assay volume of 3 μL, followed by 1 μL of silicone oil.

full-length human RORγt = full-length human RORγt (Homo sapiens (Human), UniProt P51449); test: RORγt (full-length human) reporter assay, conditions A or B, HEK293T cells; assay type: cell-based; conditions: for inhibition at 2 µM: 2 μM compound concentration; for IC50: RORγt (FL) Reporter Assay A or B, IC50, HEK293T cells; for inhibition at 3 µM: 3 μM compound concentration (footnote *); for inhibition at 1 µM: 1 μM compound concentration (footnote ***)
Chain of full-length human RORγt (P51449 other isoform, or with tags, fused parts or gaps): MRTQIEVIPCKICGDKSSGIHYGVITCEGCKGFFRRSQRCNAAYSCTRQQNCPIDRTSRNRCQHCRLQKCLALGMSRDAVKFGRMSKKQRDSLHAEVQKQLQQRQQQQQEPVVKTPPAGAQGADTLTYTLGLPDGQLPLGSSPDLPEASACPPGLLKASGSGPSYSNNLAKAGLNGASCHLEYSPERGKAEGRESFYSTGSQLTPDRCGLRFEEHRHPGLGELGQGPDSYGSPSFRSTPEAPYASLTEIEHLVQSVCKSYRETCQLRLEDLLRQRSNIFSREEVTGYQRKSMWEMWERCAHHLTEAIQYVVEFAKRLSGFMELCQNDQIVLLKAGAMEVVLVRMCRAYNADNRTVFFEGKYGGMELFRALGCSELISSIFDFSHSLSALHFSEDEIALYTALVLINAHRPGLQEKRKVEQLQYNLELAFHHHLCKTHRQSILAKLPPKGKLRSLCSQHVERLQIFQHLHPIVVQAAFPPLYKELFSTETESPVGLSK
Method: RORγt (Full-Length Human) Reporter Assay:
(§1) HEK293T cells were plated at 35,000 per well in 96-well plate in medium of DMEM with 10% FBS. […] After overnight (16 to 20 hours) incubation, media were removed and cells were lysed with 50 L Glo Lysis Buffer (Promega) for 10-15 minutes followed by 10 minute incubation with 50 μL Dual Glo reagent (Promega) at room temperature. Firefly luciferase luminescence was measured using a BMG Pherastar plate reader. To each well, 50 μL Stop and Glo reagent was added and incubated for 10 minutes at room temperature. Renilla luminescence was measured using a BMG Pherastar plate reader. To calculate the effect of compounds on RORγt activity, firefly values were normalized against values of DMSO only and values of reference compound at saturating concentration, then further normalized against Renilla signals. IC50s were generated by plotting final Renilla normalized data against compound concentration and percent inhibition was calculated against DMSO control.
as §1, with “at 8750 cells” for “at 35,000”, “in 384-well” for “in 96-well”, “with 20” for “with 50”, “well, 20” for “well, 50”

[2] = read-out: ThermoFluor® Assay, Kd
[3] = HEK-293T, read-out: RORγt (FL) Reporter Assay A or B, % inhibition
[4] = HEK-293T, 0.22 μM compound concentration (footnote *******), read-out: RORγt (FL) Reporter Assay A or B, % inhibition

Chain of human RORγt ligand binding domain (RORγt LBD) (P51449 other isoform, or with tags, fused parts or gaps): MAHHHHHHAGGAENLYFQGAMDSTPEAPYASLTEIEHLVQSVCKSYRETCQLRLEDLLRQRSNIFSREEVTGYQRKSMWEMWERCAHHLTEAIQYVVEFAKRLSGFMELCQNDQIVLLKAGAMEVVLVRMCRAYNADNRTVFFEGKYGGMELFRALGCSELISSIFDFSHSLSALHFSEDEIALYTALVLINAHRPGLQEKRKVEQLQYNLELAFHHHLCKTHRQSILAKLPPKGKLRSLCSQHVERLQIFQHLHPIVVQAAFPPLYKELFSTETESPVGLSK

| SMILES | Kd [1, 2] | IC50 (full-length human RORγt) | also measured |
| --- | --- | --- | --- |
| CCn1nc(C(=O)NC[C@H]2CC[C@H](S(C)(=O)=O)CC2)c(Cl)c1-c1ccc(CC(C)C)cc1OC [Example 72, 4-Chloro-1-ethyl-5-(4-isobutyl-2-methoxyphenyl)-N-(((1r,4r)-4-(methylsulfonyl)cyclohexyl)methyl)-1H-pyrazole-3-carboxamide] | 0.29 nM | 10 nM | inhibition at 2 µM (full-length human RORγt; [3]): 67% |
| CCn1nc(C(=O)NC[C@]2(O)CC[C@@H](S(C)(=O)=O)CC2)c(Cl)c1-c1ccc([C@](C)(O)CC(F)(F)F)cc1OC(F)F (single isomer, unassigned) [Example 100, 4-Chloro-5-(2-(difluoromethoxy)-4-((R*)-4,4,4-trifluoro-2-hydroxybutan-2-yl)phenyl)-1-ethyl-N-(((1s,4S)-1-hydroxy-4-(methylsulfonyl)cyclohexyl)methyl)-1H-pyrazole-3-carboxamide] |  | 220 nM | Kd ([1]; ThermoFluor® Assay, Kd): 69 nM; inhibition at 3 µM (full-length human RORγt; [3]): 49% |
| CCn1nc(C(=O)NC[C@]2(C#N)CC[C@@H](S(C)(=O)=O)CC2)c(Cl)c1-c1ccc(CC(C)(C)C(F)(F)F)cc1OC(F)F [Example 134, 4-Chloro-N-(((1s*,4s*)-1-cyano-4-(methylsulfonyl)cyclohexyl)methyl)-5-(2-(difluoromethoxy)-4-(3,3,3-trifluoro-2,2-dimethylpropyl)phenyl)-1-ethyl-1H-pyrazole-3-carboxamide] | 0.2 nM | 1.3 nM | inhibition at […] (full-length human RORγt; [4]): 102% |
| CCn1nc(C(=O)NC[C@H]2CC[C@H](S(C)(=O)=O)CC2)c(C)c1-c1ccc(N[C@H](C)C(F)(F)F)cc1OC [Example 228, 1-Ethyl-5-(2-methoxy-4-(((R)-1,1,1-trifluoropropan-2-yl)amino)phenyl)-4-methyl-N-(((1r,4R)-4-(methylsulfonyl)cyclohexyl)methyl)-1H-pyrazole-3-carboxamide] | 12 nM | 29 nM | inhibition at 6 µM (full-length human RORγt; HEK-293T, read-out: RORγt (FL) Reporter Assay A or B, % inhibition @ 6 μM, 6 μM compound concentration): 99% |
| CCn1nc(C(=O)NC[C@]2(O)CC[C@@H](S(C)(=O)=O)CC2)c(Cl)c1-c1ccc(C2(O)CCC(C(F)(F)F)CC2)cc1OC(F)F (single isomer, unassigned) [Example 112, 4-Chloro-5-(2-(difluoromethoxy)-4-((1s*,4s*)-1-hydroxy-4-(trifluoromethyl)cyclohexyl)phenyl)-1-ethyl-N-(((1s,4s)-1-hydroxy-4-(methylsulfonyl)cyclohexyl)methyl)-1H-pyrazole-3-carboxamide] |  | > 1000 nM | Kd ([1]; ThermoFluor® Assay, Kd): 3000 nM; inhibition at 1 µM (full-length human RORγt; [3]): 44% |
| CCn1nc(C(=O)NC[C@]2(O)CC[C@@H](S(C)(=O)=O)CC2)c(Cl)c1-c1ccc(C2(O)CCC(F)(F)CC2)cc1OC(F)F [Example 104, 4-Chloro-5-(4-(4,4-difluoro-1-hydroxycyclohexyl)-2-(difluoromethoxy)phenyl)-1-ethyl-N-(((1s,4s)-1-hydroxy-4-(methylsulfonyl)cyclohexyl)methyl)-1H-pyrazole-3-carboxamide] | 47 nM | 220 nM | inhibition at 3 µM (full-length human RORγt; [3]): 98% |
| CCn1nc(C(=O)NC[C@H]2CC[C@H](S(C)(=O)=O)CC2)c(Cl)c1-c1ccc(CCC(F)(F)F)cc1F [Example 179, 4-Chloro-1-ethyl-5-(2-fluoro-4-(3,3,3-trifluoropropyl)phenyl)-N-(((1r,4r)-4-(methylsulfonyl)cyclohexyl)methyl)-1H-pyrazole-3-carboxamide] | 15 nM | 69 nM | inhibition at 2 µM (full-length human RORγt; [3]): 52% |
| CCCn1nc(C(=O)NC[C@H]2CC[C@H](S(C)(=O)=O)CC2)c(Cl)c1-c1ccc(C[C@@H](C)C(F)(F)F)cc1OC (single isomer, unassigned) [Example 43, 4-Chloro-5-(2-methoxy-4-((R*)-3,3,3-trifluoro-2-methylpropyl)phenyl)-N-(((1r,4R)-4-(methylsulfonyl)cyclohexyl)methyl)-1-propyl-1H-pyrazole-3-carboxamide] |  | 7 nM | Kd ([1]; ThermoFluor® Assay, Kd): 0.21 nM; inhibition at 0.67 µM (full-length human RORγt; HEK-293T, 0.67 μM compound concentration (footnote ****), read-out: RORγt (FL) Reporter Assay A or B, % inhibition): 99% |
| CCn1nc(C(=O)NC[C@H]2CC[C@H](S(C)(=O)=O)CC2)c(Cl)c1-c1ccc(N[C@H](C)C(F)(F)F)cc1OC(F)(F)F [Example 190, 4-Chloro-1-ethyl-N-(((1r,4R)-4-(methylsulfonyl)cyclohexyl)methyl)-5-(2-(trifluoromethoxy)-4-(((R)-1,1,1-trifluoropropan-2-yl)amino)phenyl)-1H-pyrazole-3-carboxamide] | 1.2 nM | 21 nM | inhibition at 2 µM (full-length human RORγt; [3]): 104% |
| CCn1nc(C(=O)NC[C@]2(O)CC[C@@H](S(C)(=O)=O)CC2)c(Cl)c1-c1ccc(CC(C)(C)C(F)(F)F)cc1C(F)(F)F [Example 163, 4-Chloro-1-ethyl-N-(((1s,4s)-1-hydroxy-4-(methylsulfonyl)cyclohexyl)methyl)-5-(4-(3,3,3-trifluoro-2,2-dimethylpropyl)-2-(trifluoromethyl)phenyl)-1H-pyrazole-3-carboxamide] | 0.63 nM | 3.3 nM | inhibition at […] (full-length human RORγt; [4]): 78% |
| CCn1nc(C(=O)NC[C@H]2CC[C@H](S(N)(=O)=O)CC2)c(Cl)c1-c1ccc(CC(C)(C)C(F)(F)F)cc1OC(F)F [Example 51, 4-Chloro-5-(2-(difluoromethoxy)-4-(3,3,3-trifluoro-2,2-dimethylpropyl)phenyl)-1-ethyl-N-(((1r,4r)-4-sulfamoylcyclohexyl)methyl)-1H-pyrazole-3-carboxamide] |  | 4.6 nM | Kd ([1]; ThermoFluor® Assay, Kd): 0.25 nM; inhibition at 1 µM (full-length human RORγt; [3]): 113% |
| CCn1nc(C(=O)NC[C@H]2CC[C@H](S(C)(=O)=O)CC2)c(Cl)c1-c1ccc(C(O)(C(F)(F)F)C(F)(F)F)cc1OC(F)F [Example 116, 4-Chloro-5-(2-(difluoromethoxy)-4-(1,1,1,3,3,3-hexafluoro-2-hydroxypropan-2-yl)phenyl)-1-ethyl-N-(((1r,4r)-4-(methylsulfonyl)cyclohexyl)methyl)-1H-pyrazole-3-carboxamide] | 0.15 nM | 3.4 nM | inhibition at 3 µM (full-length human RORγt; [3]): 106% |
| CCn1nc(C(=O)NC[C@]2(O)CC[C@@H](S(C)(=O)=O)CC2)c(Cl)c1-c1ccc(C(O)C(C)(C)C(F)(F)F)cc1OC(F)F (stereo partly drawn) [Example 106, 4-Chloro-5-(2-(difluoromethoxy)-4-(3,3,3-trifluoro-1-hydroxy-2,2-dimethylpropyl)phenyl)-1-ethyl-N-(((1s,4s)-1-hydroxy-4-(methylsulfonyl)cyclohexyl)methyl)-1H-pyrazole-3-carboxamide] |  |  | inhibition at 1 µM (full-length human RORγt; [3]): 115% |
| CCn1nc(C(=O)NC[C@H]2CC[C@H](S(C)(=O)=O)CC2)c(Cl)c1-c1ccc(OCC2CC2(F)F)cc1OC (single isomer, unassigned) [Example 211, 4-Chloro-5-(4-(((R*)-2,2-difluorocyclopropyl)methoxy)-2-methoxyphenyl)-1-ethyl-N-(((1r,4R)-4-(methylsulfonyl)cyclohexyl)methyl)-1H-pyrazole-3-carboxamide] |  |  | inhibition at 2 µM (full-length human RORγt; [3]): 66% |
| CCn1nc(C(=O)NC[C@]2(O)CC[C@@H](S(C)(=O)=O)CC2)c(C)c1-c1ccc(C[C@@H](C)C(F)(F)F)cc1OC(F)F [Example 142, 5-(2-(Difluoromethoxy)-4-((R)-3,3,3-trifluoro-2-methylpropyl)phenyl)-1-ethyl-N-(((1s,4S)-1-hydroxy-4-(methylsulfonyl)cyclohexyl)methyl)-4-methyl-1H-pyrazole-3-carboxamide] |  |  | inhibition at […] (full-length human RORγt; HEK-293T, 0.33 μM compound concentration (footnote *****), read-out: RORγt (FL) Reporter Assay A or B, % inhibition): 87% |
